Source: US8378104B2 (OSI Pharmaceuticals, LLC, priority 2010, dated 2013)

Target: T1, TAK1-TAB1 fusion protein (Homo sapiens, UniProt O43318)
T1 construct: purchased Carna
T1 sequence (O43318 with tags, fused parts or gaps limits assumed): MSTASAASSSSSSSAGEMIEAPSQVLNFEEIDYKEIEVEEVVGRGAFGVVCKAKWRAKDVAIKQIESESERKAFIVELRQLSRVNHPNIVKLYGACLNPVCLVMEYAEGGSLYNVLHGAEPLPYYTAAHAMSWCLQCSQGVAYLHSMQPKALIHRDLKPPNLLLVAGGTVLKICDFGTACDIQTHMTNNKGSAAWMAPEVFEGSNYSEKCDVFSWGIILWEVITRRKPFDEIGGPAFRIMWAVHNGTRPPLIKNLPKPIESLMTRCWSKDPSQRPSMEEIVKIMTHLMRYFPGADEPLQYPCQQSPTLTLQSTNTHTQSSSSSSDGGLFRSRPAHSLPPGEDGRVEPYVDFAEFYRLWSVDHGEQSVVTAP
Experiment: TAK1 biochemical assay (AlphaScreen, GST-MAP2K7 substrate)
Conditions: TAK1-TAB1 fusion protein, GST-MAP2K7 substrate; read-out: mean TAK1 IC50 (Col. A)

SMILES	IC50 [µM]
CC(=O)N1CCC(n2cc(-c3cnc(N)c4oc(-c5ccnc6ccccc56)cc34)cn2)CC1 [Example 175, 1-(4-{4-[7-amino-2-(quinolin-4-yl)furo[2,3-c]pyridin-4-yl]-1H-pyrazol-1-yl}piperidin-1-yl)ethanone]	0.1 to 1
CC(=O)N1CCC(n2cc(-c3cnc(N)c4oc(-c5ccc(CC#N)cc5)cc34)cn2)CC1 [Example 179, (4-{4-[1-(1-acetylpiperidin-4-yl)-1H-pyrazol-4-yl]-7-aminofuro[2,3-c]pyridin-2-yl}phenyl)acetonitrile]	1 to 10
CC(=O)N1CCC(n2cc(-c3cnc(N)c4oc(-c5ccc(N)cc5)cc34)cn2)CC1 [Example 183, 1-(4-{4-[7-amino-2-(4-aminophenyl)furo[2,3-c]pyridin-4-yl]-1H-pyrazol-1-yl}piperidin-1-yl)ethanone]	1 to 10
CC(=O)N1CCC(n2cc(-c3cnc(N)c4oc(-c5ccc(CO)cc5)cc34)cn2)CC1 [Example 184, 1-[4-(4-{7-amino-2-[4-(hydroxymethyl)phenyl]furo[2,3-c]pyridin-4-yl}-1H-pyrazol-1-yl)piperidin-1-yl]ethanone]	1 to 10
CC(=O)N1CCC(n2cc(-c3cnc(N)c4oc(-c5cccc(C(F)(F)F)c5)cc34)cn2)CC1 [Example 185, 1-[4-(4-{7-amino-2-[3-(trifluoromethyl)phenyl]furo[2,3-c]pyridin-4-yl}-1H-pyrazol-1-yl)piperidin-1-yl]ethanone]	1 to 10
CC(=O)N1CCC(n2cc(-c3cnc(N)c4oc(-c5cccc(OCC(F)(F)F)c5)cc34)cn2)CC1 [Example 187, 1-[4-(4-{7-amino-2-[3-(2,2,2-trifluoroethoxy)phenyl]furo[2,3-c]pyridin-4-yl}-1H-pyrazol-1-yl)piperidin-1-yl]ethanone]	1 to 10
CC(=O)N1CCC(n2cc(-c3cnc(N)c4oc(-c5c[nH]c6ccccc56)cc34)cn2)CC1 [Example 188, 1-(4-{4-[7-amino-2-(1H-indol-3-yl)furo[2,3-c]pyridin-4-yl]-1H-pyrazol-1-yl}piperidin-1-yl)ethanone]	> 10
CC(=O)N1CCC(n2cc(-c3cnc(N)c4oc(-c5cccc6ccncc56)cc34)cn2)CC1 [Example 190, 1-(4-{4-[7-amino-2-(isoquinolin-8-yl)furo[2,3-c]pyridin-4-yl]-1H-pyrazol-1-yl}piperidin-1-yl)ethanone]	1 to 10
CC(=O)c1ccccc1-c1cc2c(-c3cnn(C4CCN(C(C)=O)CC4)c3)cnc(N)c2o1 [Example 193, 1-(4-{4-[2-(2-acetylphenyl)-7-aminofuro[2,3-c]pyridin-4-yl]-1H-pyrazol-1-yl}piperidin-1-yl)ethanone]	1 to 10
CC(=O)N1CCC(n2cc(-c3cnc(N)c4oc(-c5ccccc5CO)cc34)cn2)CC1 [Example 194, 1-[4-(4-{7-amino-2-[2-(hydroxymethyl)phenyl]furo[2,3-c]pyridin-4-yl}-1H-pyrazol-1-yl)piperidin-1-yl]ethanone]	0.1 to 1
COCc1ccccc1-c1cc2c(-c3cnn(C4CCN(C(C)=O)CC4)c3)cnc(N)c2o1 [Example 195, 1-[4-(4-{7-amino-2-[2-(methoxymethyl)phenyl]furo[2,3-c]pyridin-4-yl}-1H-pyrazol-1-yl)piperidin-1-yl]ethanone]	1 to 10
CC(=O)N1CCC(n2cc(-c3cnc(N)c4oc(-c5cccc6ccoc56)cc34)cn2)CC1 [Example 196, 1-(4-{4-[7-amino-2-(1-benzofuran-7-yl)furo[2,3-c]pyridin-4-yl]-1H-pyrazol-1-yl}piperidin-1-yl)ethanone]	> 10
CC(=O)N1CCC(n2cc(-c3cnc(N)c4oc(C5CCCC5)cc34)cn2)CC1 [Example 198, 1-{4-[4-(7-amino-2-cyclopentylfuro[2,3-c]pyridin-4-yl)-1H-pyrazol-1-yl]piperidin-1-yl}ethanone]	1 to 10
CC(=O)N1CCC(n2cc(-c3cnc(N)c4oc(-c5cccc(OCCC(C)C)c5)cc34)cn2)CC1 [Example 208, 1-[4-(4-{7-amino-2-[3-(3-methylbutoxy)phenyl]furo[2,3-c]pyridin-4-yl}-1H-pyrazol-1-yl)piperidin-1-yl]ethanone]	> 10
CC(=O)N1CCC(n2cc(-c3cnc(N)c4oc(-c5cccc(OCC6CCCCC6)c5)cc34)cn2)CC1 [Example 209, 1-[4-(4-{7-amino-2-[3-(cyclohexylmethoxy)phenyl]furo[2,3-c]pyridin-4-yl}-1H-pyrazol-1-yl)piperidin-1-yl]ethanone]	> 10
CCOC(=O)COc1cccc(-c2cc3c(-c4cnn(C5CCN(C(C)=O)CC5)c4)cnc(N)c3o2)c1 [Example 211, ethyl (3-{4-[1-(1-acetylpiperidin-4-yl)-1H-pyrazol-4-yl]-7-aminofuro[2,3-c]pyridin-2-yl}phenoxy)acetate]	> 10
CC(=O)N1CCC(n2cc(-c3cnc(N)c4oc(-c5cccc6c5cnn6C)cc34)cn2)CC1 [Example 214, 1-(4-{4-[7-amino-2-(1-methyl-1H-indazol-4-yl)furo[2,3-c]pyridin-4-yl]-1H-pyrazol-1-yl}piperidin-1-yl)ethanone]	0.1 to 1
CC(=O)N1CCC(n2cc(-c3cnc(N)c4oc(-c5coc6ccccc56)cc34)cn2)CC1 [Example 220, 1-(4-{4-[7-amino-2-(1-benzofuran-3-yl)furo[2,3-c]pyridin-4-yl]-1H-pyrazol-1-yl}piperidin-1-yl)ethanone bis(trifluoroacetate)]	1 to 10

Other lines, results leading:

IC50 [µM]	SMILES
0.1 to 1	CC(=O)N1CCC(n2cc(-c3cnc(N)c4oc(-c5cccc(CN)c5)cc34)cn2)CC1 [Example 178, 1-[4-(4-{7-amino-2-[3-(aminomethyl)phenyl]furo[2,3-c]pyridin-4-yl}-1H-pyrazol-1-yl)piperidin-1-yl]ethanone]
> 10	CCCOc1cccc(-c2cc3c(-c4cnn(C5CCN(C(C)=O)CC5)c4)cnc(N)c3o2)c1 [Example 181, 1-(4-{4-[7-amino-2-(3-propoxyphenyl)furo[2,3-c]pyridin-4-yl]-1H-pyrazol-1-yl}piperidin-1-yl)ethanone]
1 to 10	COc1ccc(COc2cccc(-c3cc4c(-c5cnn(C6CCN(C(C)=O)CC6)c5)cnc(N)c4o3)c2)cc1 [Example 182, 1-{4-[4-(7-amino-2-{3-[(4-methoxybenzyl)oxy]phenyl}furo[2,3-c]pyridin-4-yl)-1H-pyrazol-1-yl]piperidin-1-yl}ethanone]
> 10	CC(=O)N1CCC(n2cc(-c3cnc(N)c4oc(-c5cccc(Oc6ccccc6)c5)cc34)cn2)CC1 [Example 186, 1-(4-{4-[7-amino-2-(3-phenoxyphenyl)furo[2,3-c]pyridin-4-yl]-1H-pyrazol-1-yl}piperidin-1-yl)ethanone]
1 to 10	CC(=O)N1CCC(n2cc(-c3cnc(N)c4oc(-c5cccc(OCc6ccccn6)c5)cc34)cn2)CC1 [Example 199, 1-[4-(4-{7-amino-2-[3-(Pyridin-2-ylmethoxy)phenyl]furo[2,3-c]pyridin-4-yl}-1H-pyrazol-1-yl)piperidin-1-yl]ethanone]
1 to 10	COCCOc1cccc(-c2cc3c(-c4cnn(C5CCN(C(C)=O)CC5)c4)cnc(N)c3o2)c1 [Example 200, 1-[4-(4-{7-amino-2-[3-(2-methoxyethoxy)phenyl]furo[2,3-c]pyridin-4-yl}-1H-pyrazol-1-yl)piperidin-1-yl]ethanone]
> 10	CC(=O)N1CCC(n2cc(-c3cnc(N)c4oc(-c5cccc(OCc6cccc(Cl)c6)c5)cc34)cn2)CC1 [Example 201, 1-{4-[4-(7-amino-2-{3-[(3-chlorobenzyl)oxy]phenyl}furo[2,3-c]pyridin-4-yl)-1H-pyrazol-1-yl]piperidin-1-yl}ethanone]
1 to 10	CC(=O)N1CCC(n2cc(-c3cnc(N)c4oc(-c5cccc(OCc6cccnc6)c5)cc34)cn2)CC1 [Example 202, 1-[4-(4-{7-amino-2-[3-(pyridin-3-ylmethoxy)phenyl]furo[2,3-c]pyridin-4-yl}-1H-pyrazol-1-yl)piperidin-1-yl]ethanone]
0.1 to 1	CC(=O)N1CCC(n2cc(-c3cnc(N)c4oc(-c5cccc(OCc6ccncc6)c5)cc34)cn2)CC1 [Example 203, 1-[4-(4-{7-amino-2-[3-(pyridin-4-ylmethoxy)phenyl]furo[2,3-c]pyridin-4-yl}-1H-pyrazol-1-yl)piperidin-1-yl]ethanone]
> 10	CC(=O)N1CCC(n2cc(-c3cnc(N)c4oc(-c5cccc(OCC(C)C)c5)cc34)cn2)CC1 [Example 204, 1-[4-(4-{7-amino-2-[3-(2-methylpropoxy)phenyl]furo[2,3-c]pyridin-4-yl}-1H-pyrazol-1-yl)piperidin-1-yl]ethanone]
> 10	CC(=O)N1CCC(n2cc(-c3cnc(N)c4oc(-c5cccc(OCc6ccc(Cl)cc6)c5)cc34)cn2)CC1 [Example 206, 1-{4-[4-(7-amino-2-{3-[(4-chlorobenzyl)oxy]phenyl}furo[2,3-c]pyridin-4-yl)-1H-pyrazol-1-yl]piperidin-1-yl}ethanone]
> 10	COc1cccc(COc2cccc(-c3cc4c(-c5cnn(C6CCN(C(C)=O)CC6)c5)cnc(N)c4o3)c2)c1 [Example 207, 1-{4-[4-(7-amino-2-{3-[(3-methoxybenzyl)oxy]phenyl}furo[2,3-c]pyridin-4-yl)-1H-pyrazol-1-yl]piperidin-1-yl}ethanone]
> 10	CCC(C)Oc1cccc(-c2cc3c(-c4cnn(C5CCN(C(C)=O)CC5)c4)cnc(N)c3o2)c1 (centres unmarked) [Example 210]
> 10	COc1ccccc1COc1cccc(-c2cc3c(-c4cnn(C5CCN(C(C)=O)CC5)c4)cnc(N)c3o2)c1 [Example 212, 1-{4-[4-(7-amino-2-{3-[(2-methoxybenzyl)oxy]phenyl}furo[2,3-c]pyridin-4-yl)-1H-pyrazol-1-yl]piperidin-1-yl}ethanone]
